In US7767671B2, “3-Quinolinecarbonitrile protein kinase inhibitors” (Wyeth, priority 2004, dated 2010):
Where a name gives a salt, the structure may show the parent alone.

How the values were obtained:
LoVo = experiment: Cell based screen for inhibitors of Raf and/or Mek kinase (SRB), LoVo; parameters: species or system human; conditions: LoVo cells, four days incubation, (a)/(b)/(c) = average of two/three/five runs
Protocol: (§1) Cell Based Screen for Inhibitors of Raf and/or Mek Kinase. Materials
Cell Lines: Human adenocarcinoma cell line LoVo, known to be growth inhibited by low nM concentrations of a reference standard inhibitor of Ras and human adenocarcinoma cell line CaCo-2, known to be growth resistant to the same reference compound.
Cell Media: RPMI 1640 with 10% Fetal Bovine Serum supplemented with L-glutamine and Penicillin/Streptomycin.
(§2) Cells are plated at 2000 cells per well for cell line LoVo and 1500 cells for cell line CaCo-2 in 96 well plates. Cells are plated in media (200 μl) and allowed to adhere overnight at 37° C. At 24 hours post plating, compounds are added directly at a volume of 0.5 μl. For the qualitative screen (compounds screened at 25 μM) compound is added directly to cells. For the quantitative screen, compound is first diluted in DMSO to generate concentrations of compound or reference standard of: 1, 5, 10 and 25 μM. It is advisable to make the dilutions in an identical 96 well plate so that compounds can be added using a multichannel micropipettor set at 0.5 μl. The cells are then incubated for four days after which the media is removed using a 12 well manifold by first tipping the plate forward at a 45 degree angle and then inserting the manifold in an upright orientation to prevent the tips of the manifold from disturbing cells at the bottom of the plate. 200 μl of normal saline is then added to each well using an 8 well multichannel pipettor, followed by the careful addition of 50 μl of 50% TCA. The plates are then incubated for 2 hours at 4° C., after which the supernatant is removed using the same technique as above and the plated cells are washed twice with 200 μl water. The plates are then air dried and 50 μl of SRB stock solution is carefully added so that the entire bottom of each well is covered. This again can be done using an 8 well multichannel pipettor. The SRB is incubated with fixed cells for 15 minutes at room temperature after which the SRB is removed with the manifold as described above and the plates washed twice with 350 μl of 1% acetic acid per well each time. The plates are then air dried after which the bound SRB is released from protein by the addition of 200 μl of Tris base. Resolubilizing the SRB is aided by placing the plates on a rotator for 15-30 minutes. The absorbance of each well is determined at 550 or 562 nm using a microtiter plate reader.
(§3) Each compound or dilution thereof is performed in triplicate. Outliers are identified by visual inspection of the data. Each plate should have a “0” control (vehicle only).
(§4) Quantitative Assay: A standard curve is constructed by plotting the concentration of compound against the average absorbance calculated at that concentration. A curve is plotted and the concentration at which the curve passes through the 50% the absorbance mark seen in the “0” control well is the IC50 calculated for that compound. Multiple entries for a given compound indicate that it is tested multiple times.

BxPC3 = experiment: Cell based screen for inhibitors of Raf and/or Mek kinase (SRB), BxPC3; conditions: Homo sapiens, BXPC-3, BxPC3 cells, (a)/(b) = average of two/three runs
Protocol: [The procedure below names another cell line; the source lists this cell line under the same test.] as §1, §2, §3, §4

[1] = target: T1, Raf and/or Mek kinase (human c-Raf, GST-MEK1) (Homo sapiens, UniProt P04049+Q02750); experiment: Raf/Mek kinase cascade assay; format: biochemical; conditions: c-Raf dependent activation of GST-MEK and GST-MAPK, phospho-MAPK ELISA; (a)/(b)/(c) = average of two/three/four runs
T1 construct: Sf9 insect cell lysate containing full length 6his-tagged recombinant human c-Raf; 6His; host or cells: Sf9 insect cells (c-Raf, used as lysate); E. coli (MEK1-GST, GST-MAPK)
Protocol: Raf/Mek Kinase Cascade Assay Procedure
(Specific Activity: ˜200 U/ml). Human Non-active Mek-1-GST and human GST-MAP kinase (recombinant proteins produced in E. coli).
Stock Solutions Raf/Mek Cascade Assay:
• 1. Assay Dilution Buffer (ADB): 20 mM MOPS, pH 7.2, 25 mM β-glycerol phosphate, 5 mM EGTA, 1 mM sodium orthovanadate, 1 mM dithiothreitol; • 2. Magnesium/ATP Cocktail: 500 μM cold ATP and 75 mM magnesium chloride in ADB; • 3. Active Kinase: Human Active c-Raf: Use at 0.4 U per assay point; • 4. Non-active GST-MEK1: Use at 0.1 μg per assay point; and • 5. Non-active GST-p42 MAP Kinase: Use at 1.0 μg per assay point. Stock Solutions ELISA: • 1. TBST-Tris (50 mM, pH 7.5), NaCl (150 mM), Tween-20 (0.05%); • 2. Superblock (Pierce); • 3. Anti-GST Ab (Pharmacia); • 4. Anti-Phospho MAPK (Sigma); and • 5. Anti-Mouse Ab/Europium conjugate (Wallac). Assay Procedure: First Stage: c-Raf Dependent Activation of GST-MEK and GST-MAPK • 1. Add […] of ADB per assay (i.e. per well of a 96 well plate); • 2. Add 10 ml of 0.5 mM cold ATP and 75 mM magnesium chloride in ADB; • 3. Add 2 ml of c-Raf (0.4 U/assay), in conjunction with 1.6 ml non-active MEK1 (0.4 […]/assay); • 4. Add 4 ml of non-active GST-p42 MAP Kinase (1.0 mg/assay); • 5. Incubate for 60 minutes at 30° C. in a shaking incubator; • 6. Transfer this mixture to an anti-GST Ab coated 96 well plate (Nunc Immunosorb plates coated o/n with a-GST, then blocked with Pierce Superblock); • 7. Incubate for 60 minutes at 30° C. in a shaking incubator; • 8. Wash 3× with TBST, add Anti-Phospho MAPK (Sigma) (1:3000); • 9. Incubate for 60 minutes at 30° C. in a shaking incubator; • 10. Wash 3× with TBST, add Anti-Mouse Ab/Europium conjugate (Wallac) (1:500); • 11. Incubate for 60 minutes at 30° C. in a shaking incubator; • 12. Wash 3× with TBST, Read plates in Wallac Victor model Plate Reader; and • 13. Collect data analyze in Excel for single point and IC50 determinations.
Single point assay—% inhibition at […] (% Inhibition=1−cpd·treated sample/untreated control). IC50 determinations—done on compounds from single point assays with >80% inhibition. Typically, the Raf/Mek assay is run at compound concentrations from 10 μM to 1 nM in half log dilutions. (% inhibition is determined for each compound concentration). The results obtained measure Raf and/or Mek kinase inhibition, and for representative compounds of this invention are listed in Table 1.

T1 sequence (P04049 whole entry): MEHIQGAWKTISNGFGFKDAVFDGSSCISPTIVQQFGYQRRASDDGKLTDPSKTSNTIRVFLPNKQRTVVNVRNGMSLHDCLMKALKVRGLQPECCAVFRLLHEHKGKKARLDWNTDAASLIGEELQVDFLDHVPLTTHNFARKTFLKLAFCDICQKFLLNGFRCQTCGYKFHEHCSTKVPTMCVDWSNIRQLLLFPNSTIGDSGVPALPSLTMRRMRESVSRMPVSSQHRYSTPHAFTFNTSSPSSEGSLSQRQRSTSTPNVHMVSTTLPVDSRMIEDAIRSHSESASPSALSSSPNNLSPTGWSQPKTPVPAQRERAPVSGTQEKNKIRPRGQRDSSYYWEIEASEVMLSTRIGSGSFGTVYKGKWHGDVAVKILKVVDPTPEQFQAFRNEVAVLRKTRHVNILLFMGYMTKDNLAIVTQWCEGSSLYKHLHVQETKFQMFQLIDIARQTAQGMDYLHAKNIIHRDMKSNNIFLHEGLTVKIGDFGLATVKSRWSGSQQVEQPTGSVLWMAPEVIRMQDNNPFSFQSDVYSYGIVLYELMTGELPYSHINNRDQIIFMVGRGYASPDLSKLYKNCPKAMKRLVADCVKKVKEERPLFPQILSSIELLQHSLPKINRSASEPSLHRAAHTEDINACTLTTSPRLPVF
T1 sequence (Q02750 whole entry): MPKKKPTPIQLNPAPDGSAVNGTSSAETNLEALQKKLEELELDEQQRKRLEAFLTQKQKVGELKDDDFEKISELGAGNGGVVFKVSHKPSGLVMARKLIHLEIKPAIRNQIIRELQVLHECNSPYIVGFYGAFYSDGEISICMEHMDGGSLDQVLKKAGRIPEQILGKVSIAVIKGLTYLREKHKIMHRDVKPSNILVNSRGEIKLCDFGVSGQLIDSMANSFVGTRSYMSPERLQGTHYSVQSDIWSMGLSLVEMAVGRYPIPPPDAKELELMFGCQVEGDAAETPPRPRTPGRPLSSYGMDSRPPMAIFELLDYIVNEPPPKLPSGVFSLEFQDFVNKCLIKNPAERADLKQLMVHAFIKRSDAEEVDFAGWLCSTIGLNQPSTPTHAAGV

Compound | IC50 (LoVo; Homo sapiens, 96 h) [µM] | IC50 (BxPC3) [µM] | melting point | IC50 [1] [µM] | IC50 (LoVo) [µM]
Cn1ccnc1Sc1ccc(Nc2c(C#N)cnc3cc(N4CCC(N5CCCC5)CC4)ccc23)cc1Cl [Example 16] | 0.009 | 0.03 | 125 to 130 °C | 0.035 | –
N#Cc1c[nH]c2cc(N3CCC(N4CCCC4)CC3)c([N+](=O)[O-])cc2c1=O [Example 24, 6-Nitro-4-oxo-7-(4-pyrrolidin-1-ylpiperidin-1-yl)-1,4-dihydroquinoline-3-carbonitrile] | – | – | 232 to 235 °C | – | –
COc1cc2c(Nc3ccc(Sc4nccn4C)c(Cl)c3)c(C#N)cnc2cc1N1CCC(N2CCOCC2)CC1 [Example 21, 4-({3-Chloro-4-[(1-methyl-1H-imidazole-2-yl)thio]phenyl}amino)-6-methoxy-7-(4-morpholin-4-ylpiperidin-1-yl)quinoline-3-carbonitrile] | 0.02 | – | 219 to 221 °C | 0.181 | –
N#Cc1cnc2cc(N3CCC(N4CCCC4)CC3)c([N+](=O)[O-])cc2c1Cl [Example 25, 4-chloro-6-nitro-7-(4-pyrrolidin-1-ylpiperidin-1-yl)quinoline-3-carbonitrile] | – | – | 255 to 265 °C (dec.) | – | –
COc1cc2c(Nc3ccc(Sc4nccn4C)c(Cl)c3)c(C#N)cnc2cc1N1CCC(N2CCCCC2)CC1 [Example 19] | – | – | – | 0.199 | 0.008
COc1ccccc1Oc1ccc(Nc2c(C#N)cnc3cc(N4CCC(N5CCCC5)CC4)c(OC)cc23)cc1 [Example 12, 6-Methoxy-4-{[4-(2-methoxyphenoxy)phenyl]amino}-7-(4-pyrrolidin-1-ylpiperidin-1-yl)quinoline-3-carbonitrile, trifluoroacetate salt] | 0.46 | 1.4 | – | 0.21 | –
COCCOc1cc2c(Nc3ccc(Sc4nccn4C)c(Cl)c3)c(C#N)cnc2cc1N1CCC(N2CCCC2)CC1 [Example 17, 4-({3-Chloro-4-[(1-methyl-1H-imidazole-2-yl)thio]phenyl}amino)-6-(2-methoxyethoxy)-7-(4-pyrrolidin-1-ylpiperidin-1-yl)quinoline-3-carbonitrile] | 0.031 | – | 238 to 241 °C | 0.32 | –
COc1cc2c(Nc3ccc(Sc4nccn4C)c(Cl)c3)c(C#N)cnc2cc1N1CCN(CCn2ccnc2)CC1 [Example 23, 4-({3-Chloro-4-[(1-methyl-1H-imidazole-2-yl)thio]phenyl}amino)-7-{4-[2-(1H-imidazole-1-yl)ethyl]piperazin-1-yl}-6-methoxyquinoline-3-carbonitrile] | 0.474 | – | 251 to 253 °C | 0.188 | –
COc1cc2c(Nc3ccc(Sc4nccn4C)c(Cl)c3)c(C#N)cnc2cc1N1CCN(C2CCN(C)CC2)CC1 [Example 22, 4-({3-Chloro-4-[(1-methyl-1H-imidazole-2-yl)thio]phenyl}amino)-6-methoxy-7-[4-(1-methylpiperidin-4-yl)piperazin-1-yl]quinoline-3-carbonitrile] | 0.08 | – | 220 to 226 °C | 0.273 | –

Second part, the compound after the results:

IC50 (LoVo; Homo sapiens, 96 h) [µM] | IC50 (BxPC3) [µM] | melting point | IC50 [1] [µM] | IC50 (LoVo) [µM] | Compound
0.047 | 0.049 | 196 to 198 °C | 0.003 | – | COc1cc2c(Nc3ccc(Sc4nccn4C)c(Cl)c3)c(C#N)cnc2cc1OCCCN1CCC(N2CCCC2)CC1 [Example 33, 4-{3-Chloro-4-[(1-methyl-1H-imidazole-2-yl)sulfanyl]anilino}-6-methoxy-7-{3-[4-(1-pyrrolidinyl)-1-piperidinyl]propoxy}-3-quinolinecarbonitrile]
– | – | 220 to 230 °C | – | – | Cn1ccnc1Sc1ccc(Nc2c(C#N)cnc3cc(N4CCC(N5CCCC5)CC4)c([N+](=O)[O-])cc23)cc1Cl [Example 26, 4-({3-Chloro-4-[(1-methyl-1H-imidazole-2-yl)thio]phenyl}amino)-6-nitro-7-(4-pyrrolidin-1-ylpiperidin-1-yl)quinoline-3-carbonitrile]
0.014 | 0.03 | 242 to 250 °C | 0.22 | – | CNc1cc2c(Nc3ccc(Sc4nccn4C)c(Cl)c3)c(C#N)cnc2cc1N1CCC(N2CCCC2)CC1 [Example 30, 4-({3-Chloro-4-[(1-methyl-1H-imidazole-2-yl)thio]phenyl}amino)-6-(methylamino)-7-(4-pyrrolidin-1-ylpiperidin-1-yl)quinoline-3-carbonitrile]
0.004 | 0.008 | 243 to 255 °C | 1.64 | – | CC(=O)Nc1cc2c(Nc3ccc(Sc4nccn4C)c(Cl)c3)c(C#N)cnc2cc1N1CCC(N2CCCC2)CC1 [Example 29, N-[4-({3-Chloro-4-[(1-methyl-1H-imidazole-2-yl)thio]phenyl}amino)-3-cyano-7-(4-pyrrolidin-1-ylpiperidin-1-yl)quinolin-6-yl]acetamide]
– | – | 265 to 267 °C | – | – | Cn1ccnc1Sc1ccc(Nc2c(C#N)cnc3cc(N4CCC(N5CCCC5)CC4)c(N)cc23)cc1Cl [Example 27, 6-Amino-4-[3-chloro-4-(1-methyl-1H-imidazole-2-ylsulfanyl)phenylamino]-7-(4-pyrrolidin-1-yl-piperidin-1-yl)quinoline-3-carbonitrile]
– | – | 127 to 130 °C | – | – | COc1cc2c(Nc3ccc(Sc4nccn4C)c(Cl)c3)c(C#N)cnc2cc1OCCN1CCC(N2CCCC2)CC1 [Example 36, 4-{3-Chloro-4-[(1-methyl-1H-imidazole-2-yl)sulfanyl]anilino}-6-methoxy-7-{2-[4-(1-pyrrolidinyl)-1-piperidinyl]ethoxy}-3-quinolinecarbonitrile]
